In one assay the target is T1, AAK1 (Homo sapiens, UniProt Q2M2I8).
T1 construct: purchased in-house DSF panel (SGC Frankfurt)
The experiment in a line: DSF. In kind it is binding.

For a further assay, the target named is T2, CLK3 (Homo sapiens, UniProt P49761).
T2 construct: purchased in-house DSF panel (SGC Frankfurt)
The experiment in a line: DSF. In kind it is binding.

In the next assay the target is T3, EPHB1 (Homo sapiens, UniProt P54762).
T3 construct: purchased in-house DSF panel (SGC Frankfurt)
The experiment in a line: DSF. In kind it is binding.

The next assay deals with T4, GPRK5 (Homo sapiens, UniProt P34947).
T4 construct: purchased in-house DSF panel (SGC Frankfurt)
T4 sequence (P34947 whole entry): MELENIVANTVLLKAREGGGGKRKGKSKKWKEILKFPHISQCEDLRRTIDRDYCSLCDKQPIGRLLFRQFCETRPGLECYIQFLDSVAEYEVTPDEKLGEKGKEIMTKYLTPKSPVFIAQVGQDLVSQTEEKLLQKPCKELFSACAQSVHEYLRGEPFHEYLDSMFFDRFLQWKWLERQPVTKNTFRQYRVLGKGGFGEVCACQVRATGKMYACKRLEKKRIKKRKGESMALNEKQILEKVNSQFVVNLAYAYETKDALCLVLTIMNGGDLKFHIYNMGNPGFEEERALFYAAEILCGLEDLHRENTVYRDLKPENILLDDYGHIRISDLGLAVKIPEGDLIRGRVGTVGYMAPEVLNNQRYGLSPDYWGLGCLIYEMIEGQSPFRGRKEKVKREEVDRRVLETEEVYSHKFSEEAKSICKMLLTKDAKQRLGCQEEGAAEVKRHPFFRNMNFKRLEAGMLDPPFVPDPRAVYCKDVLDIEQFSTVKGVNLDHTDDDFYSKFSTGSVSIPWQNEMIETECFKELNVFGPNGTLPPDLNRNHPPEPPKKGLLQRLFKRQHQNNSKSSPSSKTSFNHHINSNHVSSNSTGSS
The experiment in a line: DSF. Type of assay: binding.

Another assay addresses T5, MAP3K5 (Homo sapiens, UniProt Q99683).
T5 construct: purchased in-house DSF panel (SGC Frankfurt)
The experiment in a line: DSF. In kind it is binding.

A further assay concerns the target T6, MAPK10 (Homo sapiens, UniProt P53779).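 Also: compound tested at 10 µM with 2 µM protein.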
T6 construct: purchased in-house DSF panel (SGC Frankfurt)
The experiment in a line: DSF. In kind it is binding.

The target of a further assay is T7, MARK3 (Homo sapiens, UniProt P27448).
T7 construct: purchased in-house DSF panel (SGC Frankfurt)
T7 sequence (P27448 whole entry): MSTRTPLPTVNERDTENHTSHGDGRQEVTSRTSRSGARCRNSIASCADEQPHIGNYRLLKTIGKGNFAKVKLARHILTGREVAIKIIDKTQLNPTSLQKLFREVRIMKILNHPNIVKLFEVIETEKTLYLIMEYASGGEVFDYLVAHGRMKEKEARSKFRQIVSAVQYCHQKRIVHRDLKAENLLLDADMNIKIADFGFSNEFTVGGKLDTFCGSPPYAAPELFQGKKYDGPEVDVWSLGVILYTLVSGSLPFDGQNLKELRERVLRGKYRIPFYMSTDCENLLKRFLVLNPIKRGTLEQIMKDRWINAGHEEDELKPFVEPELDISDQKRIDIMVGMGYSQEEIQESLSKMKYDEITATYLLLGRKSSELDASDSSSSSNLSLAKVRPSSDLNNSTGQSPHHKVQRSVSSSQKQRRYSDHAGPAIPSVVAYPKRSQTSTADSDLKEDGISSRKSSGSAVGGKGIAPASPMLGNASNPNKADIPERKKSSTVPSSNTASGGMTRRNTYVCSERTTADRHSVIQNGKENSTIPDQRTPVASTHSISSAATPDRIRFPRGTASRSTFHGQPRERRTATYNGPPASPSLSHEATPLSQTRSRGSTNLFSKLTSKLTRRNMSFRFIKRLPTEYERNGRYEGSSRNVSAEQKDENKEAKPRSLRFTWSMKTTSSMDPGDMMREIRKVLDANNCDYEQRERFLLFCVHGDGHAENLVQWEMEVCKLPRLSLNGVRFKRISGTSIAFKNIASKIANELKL
The experiment in a line: DSF. In kind it is binding.

The target of the next assay is T8, NEK7 (Homo sapiens, UniProt Q8TDX7).
T8 construct: purchased in-house DSF panel (SGC Frankfurt)
The experiment in a line: DSF. In kind it is binding.

A further assay deals with T9, SRC (Homo sapiens, UniProt P12931).
T9 construct: purchased in-house DSF panel (SGC Frankfurt)
T9 sequence (P12931 254-536): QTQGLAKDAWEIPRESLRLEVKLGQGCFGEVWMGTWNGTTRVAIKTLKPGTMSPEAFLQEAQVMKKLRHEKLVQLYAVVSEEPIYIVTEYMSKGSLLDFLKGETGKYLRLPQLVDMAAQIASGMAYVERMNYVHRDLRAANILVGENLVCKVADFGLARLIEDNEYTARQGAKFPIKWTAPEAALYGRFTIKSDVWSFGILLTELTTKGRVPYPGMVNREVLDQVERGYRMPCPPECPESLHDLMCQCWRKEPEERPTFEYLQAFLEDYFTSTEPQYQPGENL
Description: DSF. In kind it is binding.

A further assay has as its target T10, STK17B (Homo sapiens, UniProt O94768).
T10 construct: purchased in-house DSF panel (SGC Frankfurt)
T10 sequence (O94768 25-329): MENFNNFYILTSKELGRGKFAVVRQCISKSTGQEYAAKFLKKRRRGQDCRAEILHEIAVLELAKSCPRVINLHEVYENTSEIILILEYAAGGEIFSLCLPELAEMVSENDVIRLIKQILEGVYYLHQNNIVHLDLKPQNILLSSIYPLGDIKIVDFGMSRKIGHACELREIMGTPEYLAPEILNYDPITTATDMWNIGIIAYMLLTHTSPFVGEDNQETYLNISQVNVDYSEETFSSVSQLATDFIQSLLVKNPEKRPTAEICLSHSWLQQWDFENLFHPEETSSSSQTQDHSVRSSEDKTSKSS
Description: DSF. Type of assay: binding.

Another assay concerns the target T11, CDK11A/Cyclin K (Homo sapiens, UniProt Q9UQ88).
T11 sequence (Q9UQ88 1-783): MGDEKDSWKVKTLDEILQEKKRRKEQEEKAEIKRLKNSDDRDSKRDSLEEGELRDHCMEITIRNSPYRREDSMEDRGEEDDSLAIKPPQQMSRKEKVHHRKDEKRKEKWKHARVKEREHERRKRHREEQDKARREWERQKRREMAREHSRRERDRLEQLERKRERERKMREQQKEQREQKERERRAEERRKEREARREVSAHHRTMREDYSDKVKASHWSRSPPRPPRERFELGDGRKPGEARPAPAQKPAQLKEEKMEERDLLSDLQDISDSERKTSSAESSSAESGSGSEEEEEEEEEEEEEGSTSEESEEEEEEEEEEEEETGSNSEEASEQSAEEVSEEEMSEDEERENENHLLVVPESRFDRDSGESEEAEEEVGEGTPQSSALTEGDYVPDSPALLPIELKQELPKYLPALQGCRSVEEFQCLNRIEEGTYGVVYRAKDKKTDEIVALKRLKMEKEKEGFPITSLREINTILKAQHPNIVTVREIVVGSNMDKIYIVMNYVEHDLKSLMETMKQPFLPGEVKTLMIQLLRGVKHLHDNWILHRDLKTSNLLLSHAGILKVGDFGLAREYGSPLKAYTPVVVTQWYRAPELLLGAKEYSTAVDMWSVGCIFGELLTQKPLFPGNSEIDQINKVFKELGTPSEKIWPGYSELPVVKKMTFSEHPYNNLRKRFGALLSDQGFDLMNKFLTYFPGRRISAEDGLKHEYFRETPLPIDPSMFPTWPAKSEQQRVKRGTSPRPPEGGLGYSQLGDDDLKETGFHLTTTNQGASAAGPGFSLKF
Description: NanoBRET. In kind it is cell-based. As to conditions: read-out: NanoBRET EC50 ± SEM CDK11A/Cyclin K. How it is done: (§1) The assay was performed as described previously. In brief: Full-length kinases were obtained as plasmids cloned in frame with a terminal NanoLuc-fusion (Promega, Madison, WI, USA), as specified in table (Table S6). Plasmids were transfected into HEK293T cells using FuGENE HD (Promega, E2312) and proteins were allowed to express for 20h. Serially diluted inhibitor and NanoBRET Kinase Tracer (Promega) at a concentration determined previously as the KD,app (Table S5) were pipetted into white 384-well plates (Greiner 781207) using an Echo acoustic dispenser (Labcyte, San Jose, CA, USA). The corresponding protein-transfected cells were added and reseeded at a density of 2.5 × 10^5 cells/mL after trypsinization and resuspending in Opti-MEM without phenol red (Life Technologies, Carlsbad, CA, USA). The system was allowed to equilibrate for 2 h at 37 °C/5% CO2 prior to BRET measurements. To measure BRET, NanoBRET NanoGlo Substrate + Extracellular NanoLuc Inhibitor (Promega, N2540) was added as per the manufacturer’s protocol, and filtered luminescence was measured on a PHERAstar plate reader (BMG Labtech, Ortenberg, Germany) equipped with a luminescence filter pair (450 nm BP filter (donor) and 610 nm LP filter (acceptor)). Competitive displacement data were then graphed using GraphPad Prism 9 software using a normalized 3-parameter curve fit with the following equation: Y = 100/(1 + 10^(X–LogEC50)).
(In general: In BRET a luciferase serves as donor, and the signal depends on an acceptor being close.)

Another assay has as its target CDK11B/Cyclin K (Homo sapiens, UniProt P21127). Description: NanoBRET. Type of assay: cell-based. To be noted: read-out: NanoBRET EC50 ± SEM CDK11B/Cyclin K. How it is done:
as §1

For a further assay, the target named is T12, CDK2/Cyclin E1 (Homo sapiens, UniProt P24941).
T12 construct: Full-length kinases were obtained as plasmids cloned in frame with a terminal NanoLuc-fusion; CS1810C171 (CCNE1); host or cells: HEK293T
The experiment in a line: NanoBRET. Type of assay: cell-based. As to conditions: read-out: NanoBRET EC50 ± SEM CDK2/Cyclin E1. On the procedure: as §1

The next assay deals with T13, CDK4/Cyclin D1 (Homo sapiens, UniProt P11802).
T13 construct: Full-length kinases were obtained as plasmids cloned in frame with a terminal NanoLuc-fusion; CS1810C118 (CCND1); host or cells: HEK293T
T13 sequence (P11802 whole entry, the tested form may be a part): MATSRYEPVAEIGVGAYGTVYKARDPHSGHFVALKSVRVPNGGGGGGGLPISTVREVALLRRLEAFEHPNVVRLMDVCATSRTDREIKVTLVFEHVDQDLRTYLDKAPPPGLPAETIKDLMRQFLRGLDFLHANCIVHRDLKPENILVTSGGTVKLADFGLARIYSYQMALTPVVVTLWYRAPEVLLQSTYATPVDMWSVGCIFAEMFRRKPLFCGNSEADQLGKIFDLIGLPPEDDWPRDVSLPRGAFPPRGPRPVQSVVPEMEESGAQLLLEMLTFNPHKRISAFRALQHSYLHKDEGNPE
T13 sequence (P24385 whole entry partner, the tested form may be a part): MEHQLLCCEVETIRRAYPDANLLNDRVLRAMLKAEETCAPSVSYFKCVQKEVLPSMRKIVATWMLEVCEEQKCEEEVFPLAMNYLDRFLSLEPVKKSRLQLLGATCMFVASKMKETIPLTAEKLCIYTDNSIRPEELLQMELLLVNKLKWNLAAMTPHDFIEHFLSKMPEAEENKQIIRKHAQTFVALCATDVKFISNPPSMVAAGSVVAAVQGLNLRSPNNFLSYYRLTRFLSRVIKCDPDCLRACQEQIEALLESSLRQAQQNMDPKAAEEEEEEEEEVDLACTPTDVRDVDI
The experiment in a line: NanoBRET. In kind it is cell-based. As to conditions: read-out: NanoBRET EC50 ± SEM CDK4/Cyclin D1. How it is done:
as §1

Another assay addresses T14, CDK9/Cyclin T1 (Homo sapiens, UniProt P50750).
T14 construct: Full-length kinases were obtained as plasmids cloned in frame with a terminal NanoLuc-fusion; CS1810C177 (CCNT1); host or cells: HEK293T
The experiment in a line: NanoBRET. In kind it is cell-based. As to conditions: read-out: NanoBRET EC50 ± SEM CDK9/Cyclin T1. How it is done:
as §1

Another assay has as its system RPS6KA6. The experiment in a line: DSF. In kind it is binding.
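For ΔTm SRC in this document: compound tested at 10 µM with 2 µM protein.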

T6 sequence (P53779 whole entry): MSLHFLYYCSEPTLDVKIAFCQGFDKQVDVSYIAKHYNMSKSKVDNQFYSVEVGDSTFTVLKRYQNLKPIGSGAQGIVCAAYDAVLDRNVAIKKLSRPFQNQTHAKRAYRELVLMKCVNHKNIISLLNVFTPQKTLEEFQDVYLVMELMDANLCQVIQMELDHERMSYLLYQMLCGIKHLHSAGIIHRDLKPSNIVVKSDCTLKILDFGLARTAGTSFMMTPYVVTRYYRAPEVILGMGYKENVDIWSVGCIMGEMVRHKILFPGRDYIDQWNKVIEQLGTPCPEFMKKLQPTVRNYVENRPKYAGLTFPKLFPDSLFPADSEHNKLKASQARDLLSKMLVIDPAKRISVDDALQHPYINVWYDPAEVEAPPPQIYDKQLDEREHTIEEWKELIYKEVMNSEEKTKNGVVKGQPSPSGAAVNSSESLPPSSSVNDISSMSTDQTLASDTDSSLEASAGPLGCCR
CDK11B/Cyclin K, sequence (P21127 whole entry): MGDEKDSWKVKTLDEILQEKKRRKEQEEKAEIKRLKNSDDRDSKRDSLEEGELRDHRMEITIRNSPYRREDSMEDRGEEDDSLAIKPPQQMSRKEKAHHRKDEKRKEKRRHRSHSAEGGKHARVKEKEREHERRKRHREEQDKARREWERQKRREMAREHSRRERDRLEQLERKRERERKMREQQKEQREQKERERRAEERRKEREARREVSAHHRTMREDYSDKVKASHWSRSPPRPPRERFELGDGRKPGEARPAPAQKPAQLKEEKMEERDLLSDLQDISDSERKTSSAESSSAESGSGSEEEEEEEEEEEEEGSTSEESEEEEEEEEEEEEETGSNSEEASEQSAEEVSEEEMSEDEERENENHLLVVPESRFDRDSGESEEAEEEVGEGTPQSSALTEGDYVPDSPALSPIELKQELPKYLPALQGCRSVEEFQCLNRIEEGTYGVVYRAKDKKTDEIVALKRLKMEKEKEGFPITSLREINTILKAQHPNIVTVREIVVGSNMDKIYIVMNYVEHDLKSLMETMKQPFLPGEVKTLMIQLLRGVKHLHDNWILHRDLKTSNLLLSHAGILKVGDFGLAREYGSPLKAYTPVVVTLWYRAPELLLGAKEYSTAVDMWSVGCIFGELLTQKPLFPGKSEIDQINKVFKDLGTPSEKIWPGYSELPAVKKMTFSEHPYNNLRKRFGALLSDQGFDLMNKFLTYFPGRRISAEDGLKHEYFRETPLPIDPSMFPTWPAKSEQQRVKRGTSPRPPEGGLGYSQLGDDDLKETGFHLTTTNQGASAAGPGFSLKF
T14 sequence (P50750 whole entry, the tested form may be a part): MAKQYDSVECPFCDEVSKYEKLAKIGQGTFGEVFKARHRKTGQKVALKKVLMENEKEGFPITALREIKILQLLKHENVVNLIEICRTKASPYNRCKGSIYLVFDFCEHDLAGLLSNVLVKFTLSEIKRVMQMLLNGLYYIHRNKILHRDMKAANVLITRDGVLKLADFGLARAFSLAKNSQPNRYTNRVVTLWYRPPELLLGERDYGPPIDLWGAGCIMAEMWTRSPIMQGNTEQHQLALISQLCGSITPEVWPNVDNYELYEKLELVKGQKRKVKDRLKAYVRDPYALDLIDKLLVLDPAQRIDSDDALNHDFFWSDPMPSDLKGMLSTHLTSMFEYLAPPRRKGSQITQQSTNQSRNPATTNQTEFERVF
T14 sequence (O60563 whole entry partner, the tested form may be a part): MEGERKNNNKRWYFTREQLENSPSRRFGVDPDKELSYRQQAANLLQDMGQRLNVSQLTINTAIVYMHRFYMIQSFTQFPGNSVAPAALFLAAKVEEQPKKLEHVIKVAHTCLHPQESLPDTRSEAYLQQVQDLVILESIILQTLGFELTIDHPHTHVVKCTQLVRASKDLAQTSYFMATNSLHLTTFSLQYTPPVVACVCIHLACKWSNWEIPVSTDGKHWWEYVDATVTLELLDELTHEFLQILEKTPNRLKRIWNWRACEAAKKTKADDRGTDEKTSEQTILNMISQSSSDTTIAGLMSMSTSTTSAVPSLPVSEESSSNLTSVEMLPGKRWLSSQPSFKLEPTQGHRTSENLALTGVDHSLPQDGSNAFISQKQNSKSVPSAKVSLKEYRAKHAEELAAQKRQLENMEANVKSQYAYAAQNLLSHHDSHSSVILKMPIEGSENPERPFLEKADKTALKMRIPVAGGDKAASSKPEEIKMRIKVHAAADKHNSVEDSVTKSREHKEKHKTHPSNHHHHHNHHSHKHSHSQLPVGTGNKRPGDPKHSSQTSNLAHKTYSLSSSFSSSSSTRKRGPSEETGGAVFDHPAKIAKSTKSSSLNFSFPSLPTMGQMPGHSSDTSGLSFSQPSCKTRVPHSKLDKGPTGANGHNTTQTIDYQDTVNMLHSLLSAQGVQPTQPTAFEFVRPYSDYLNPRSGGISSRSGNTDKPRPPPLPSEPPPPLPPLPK
T1 sequence (Q2M2I8 27-365): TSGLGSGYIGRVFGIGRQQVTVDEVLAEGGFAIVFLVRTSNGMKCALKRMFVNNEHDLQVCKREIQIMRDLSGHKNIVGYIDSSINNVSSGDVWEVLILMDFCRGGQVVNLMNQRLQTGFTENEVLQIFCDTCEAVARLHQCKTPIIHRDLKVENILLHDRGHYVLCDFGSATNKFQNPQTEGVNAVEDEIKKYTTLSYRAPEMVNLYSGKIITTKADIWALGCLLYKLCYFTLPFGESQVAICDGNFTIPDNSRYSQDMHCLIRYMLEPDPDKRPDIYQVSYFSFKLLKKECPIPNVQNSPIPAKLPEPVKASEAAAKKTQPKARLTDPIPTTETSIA
Description for AAK1: (§2) Recombinant protein kinase domains with a concentration of 2 μM were mixed with a 10 μM compound solution in DMSO, 20 mM HEPES, pH 7.5, and 500 mM NaCl. SYPRO Orange (5000×, Invitrogen) was added as a fluorescence probe (1 µl per mL). Subsequently, temperature-dependent protein unfolding profiles were measured, using the QuantStudio™ 5 realtime PCR machine (Thermo Fisher, Waltham, MA, USA). […] The temperature was raised with a step rate of 3 °C per minute. Data points were analyzed with the internal software (Thermal Shift SoftwareTM Version 1.4, Thermo Fisher) using the Boltzmann equation to determine the inflection point of the transition curve [56]. Differences in melting temperature are given as ΔTm values in °C. Measurements were performed in duplicates.
Description for CLK3: as §2
Description for EPHB1: as §2
Description for GPRK5: as §2
Description for MAP3K5: as §2
Description for MAPK10: as §2
Description for MARK3: as §2
Description for NEK7: as §2
Description for RPS6KA6: as §2
Description for SRC: as §2
Description for STK17B: as §2

With `CC(C)(C)OC(=O)Nc1ccc(CNc2nccc(Nc3cc(C(=O)OC(C)(C)C)[nH]n3)n2)cc1` [43d, tert-butyl 3-((2-((4-((tert-butoxycarbonyl)amino)benzyl)amino)pyrimidin-4-yl)amino)-1H-pyrazole-5-carboxylate], the “ΔTm AAK1” value on AAK1 was 1.0 °C. Besides, at CLK3, the “ΔTm CLK3” value was found to be 0.0 °C. For the same molecule, the “ΔTm EPHB1” value on EPHB1 was 1.0 °C. At GPRK5, the “ΔTm GPRK5” value was -1.4 °C. On MAP3K5, the “ΔTm MAP3K5” value came out at 0.1 °C. The “ΔTm MAPK10” value on MAPK10 was -1.6 °C. Further, the “ΔTm MARK3” value on MARK3 was -0.5 °C. Besides, the “ΔTm NEK7” value at NEK7 is -1.0 °C. Also, the “ΔTm SRC” value on SRC amounted to 0.6 °C. Besides, the “ΔTm STK17B” value at STK17B was -2.5 °C. The EC50 on CDK11A/Cyclin K was found to be 7.98 ± 3.74 µM; at CDK11B/Cyclin K, 7.96 ± 3.29 µM; at CDK2/Cyclin E1, 1860 ± 582 nM; at CDK4/Cyclin D1, 2140 ± 750 nM; at CDK9/Cyclin T1, 805 ± 240 nM.

Consider `CC(C)OC(=O)c1cc(Nc2ccnc(NCc3ccc(NC(=O)OC(C)(C)C)cc3)n2)n[nH]1` [42d, isopropyl 3-((2-((4-((tert-butoxycarbonyl)amino)benzyl)amino)pyrimidin-4-yl)amino)-1H-pyrazole-5-carboxylate], for which the “ΔTm AAK1” value on AAK1 worked out at 0.5 °C. Besides, the “ΔTm CLK3” value at CLK3 is -0.4 °C. The “ΔTm EPHB1” value on EPHB1 was found to be 0.9 °C. Further, the “ΔTm GPRK5” value at GPRK5 is -1.3 °C. At MAP3K5, the “ΔTm MAP3K5” value is 0.1 °C. The “ΔTm MAPK10” value on MAPK10 is -3.0 °C. At MARK3, the “ΔTm MARK3” value is -0.4 °C. Further, the “ΔTm NEK7” value on NEK7 was -1.7 °C. Also, the “ΔTm SRC” value at SRC was 0.4 °C. Also, the “ΔTm STK17B” value on STK17B was -2.8 °C. The EC50 came out at 3.1 ± 1.35 µM at CDK11A/Cyclin K; 3.86 ± 1.05 µM at CDK11B/Cyclin K; 2600 ± 914 nM on CDK2/Cyclin E1; 1600 ± 409 nM on CDK4/Cyclin D1; 408 ± 140 nM on CDK9/Cyclin T1.

Turning to `COC(=O)c1cc(Nc2ccnc(NCCOCCNC(=O)OC(C)(C)C)n2)[nH]n1` [21d, methyl 5-((2-((2-(2-((tert-butoxycarbonyl)amino)ethoxy)ethyl)amino)pyrimidin-4-yl)amino)-1H-pyrazole-3-carboxylate], the “ΔTm AAK1” value on AAK1 was 4.1 °C. In addition, the “ΔTm CLK3” value at CLK3 came to 1.1 °C. Further, at GPRK5, the “ΔTm GPRK5” value came out at 0.2 °C. Also, the “ΔTm MAPK10” value at MAPK10 is 2.9 °C. In addition, the “ΔTm MARK3” value on MARK3 was 2.5 °C. Moreover, the “ΔTm RPS6KA6” value in the assay on RPS6KA6 is -0.3 °C. For the same molecule, at SRC, the “ΔTm SRC” value amounted to 0.5 °C. Moreover, at STK17B, the “ΔTm STK17B” value was determined as 1.6 °C.

Take `N#CCc1ccc(Nc2nccc(Nc3cc(C4CC4)[nH]n3)n2)cc1` [compound 1, reference compound]: at AAK1, the “ΔTm AAK1” value was 13.8 °C. In addition, at CLK3, the “ΔTm CLK3” value was 11.3 °C. Moreover, at GPRK5, the “ΔTm GPRK5” value came to 5.2 °C. For the same molecule, the “ΔTm MAPK10” value on MAPK10 was 7.2 °C. Further, the “ΔTm MARK3” value on MARK3 is 8.1 °C. In addition, the “ΔTm RPS6KA6” value in the assay on RPS6KA6 is 0.4 °C. The “ΔTm SRC” value on SRC was 4.4 °C. In addition, the “ΔTm STK17B” value at STK17B was 9.7 °C. Moreover, the EC50 at CDK11A/Cyclin K was found to be 0.999 ± 0.476 µM; at CDK11B/Cyclin K, 0.926 ± 0.649 µM; at CDK2/Cyclin E1, 26.7 ± 6.3 nM; on CDK4/Cyclin D1, 93.6 ± 23.6 nM; on CDK9/Cyclin T1, 86.5 ± 10.9 nM.

On to `COC(=O)c1cc(Nc2ccnc(NCc3ccc(NC(=O)OC(C)(C)C)cc3)n2)[nH]n1` [21i, methyl 5-((2-((4-((tert-butoxycarbonyl)amino)benzyl)amino)pyrimidin-4-yl)amino)-1H-pyrazole-3-carboxylate], for which, on AAK1, the “ΔTm AAK1” value is 2.0 °C. Moreover, the “ΔTm CLK3” value at CLK3 worked out at 0.4 °C. In addition, at GPRK5, the “ΔTm GPRK5” value came to 0.7 °C. Besides, the “ΔTm MAPK10” value at MAPK10 worked out at 1.8 °C. Moreover, the “ΔTm MARK3” value at MARK3 was determined as 1.5 °C. The “ΔTm RPS6KA6” value with RPS6KA6 is -0.3 °C. The “ΔTm SRC” value on SRC is 0.6 °C. For the same molecule, at STK17B, the “ΔTm STK17B” value turned out to be 3.4 °C. Also, the EC50 is 21.1 ± 11 µM at CDK11A/Cyclin K; 22.9 ± 3.74 µM at CDK11B/Cyclin K; 20900 ± 5690 nM at CDK2/Cyclin E1; 10900 ± 3920 nM on CDK4/Cyclin D1; 6870 ± 2190 nM on CDK9/Cyclin T1.

Source of the values: article PMC9736855, “Discovery of 3-Amino-1H-pyrazole-Based Kinase Inhibitors to Illuminate the Understudied PCTAIRE Family” (International Journal of Molecular Sciences, 2022).
